For one assay, the target named is T1, delF508-CFTR (Homo sapiens, UniProt P13569, DEL508-508).
T1 construct: functional activity of the CFTR channel (Chloride ion transport) in patient derived primary human bronchial epithelial cells; host or cells: patient-derived primary human bronchial epithelial cells (HBECs), delF508-CFTR
As to the kind of experiment: delF508-CFTR functional activity in primary human bronchial epithelial cells (HBECs), Multi-Transepithelial Clamp Circuit (MTECC-24) assay, equivalent short circuit current. Type of assay: cell-based. The following applies: primary CF HBECs; for MTECC24 CFHBEC-Amax %: relative to reference combination 2 μM 3-(6-(1-(2,2-difluorobenzo[d][1,3]dioxol-5-yl)cyclopropane-1-carboxamido)-3-methylpyridin-2-yl)benzoic acid (24 h) + 0.5 μM N-(2,4-di-tert-butyl-5-hydroxyphenyl)-4-oxo-1,4-dihydroquinoline-3-carboxamide; for EC50: test compound added 24 h before assay, potentiator (S)-3-amino-6-methoxy-N-(3,3,3-trifluoro-2-hydroxy-2-methylpropyl)-5-(trifluoromethyl)picolinamide present at assay, mean of at least two replicates, read-out: MTECC24 CFHBEC-EC50. The gist of the method: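 Compound acted as corrector on differentiated primary delF508-CFTR bronchial cultures, first 24 h basolaterally, then 45 min both sides before reading. Equivalent short circuit current was recorded during sequential forskolin and potentiator addition. EC50 came from 10-point, 1-in-3 dilution curves against the 0.1% DMSO baseline.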

The target in another assay is T2, delF508-CFTR-HRP (Homo sapiens, UniProt P13569, DEL508-508).
T2 construct: expressed in transfected cells
T2 sequence (P13569 with tags, fused parts or gaps DEL508-508): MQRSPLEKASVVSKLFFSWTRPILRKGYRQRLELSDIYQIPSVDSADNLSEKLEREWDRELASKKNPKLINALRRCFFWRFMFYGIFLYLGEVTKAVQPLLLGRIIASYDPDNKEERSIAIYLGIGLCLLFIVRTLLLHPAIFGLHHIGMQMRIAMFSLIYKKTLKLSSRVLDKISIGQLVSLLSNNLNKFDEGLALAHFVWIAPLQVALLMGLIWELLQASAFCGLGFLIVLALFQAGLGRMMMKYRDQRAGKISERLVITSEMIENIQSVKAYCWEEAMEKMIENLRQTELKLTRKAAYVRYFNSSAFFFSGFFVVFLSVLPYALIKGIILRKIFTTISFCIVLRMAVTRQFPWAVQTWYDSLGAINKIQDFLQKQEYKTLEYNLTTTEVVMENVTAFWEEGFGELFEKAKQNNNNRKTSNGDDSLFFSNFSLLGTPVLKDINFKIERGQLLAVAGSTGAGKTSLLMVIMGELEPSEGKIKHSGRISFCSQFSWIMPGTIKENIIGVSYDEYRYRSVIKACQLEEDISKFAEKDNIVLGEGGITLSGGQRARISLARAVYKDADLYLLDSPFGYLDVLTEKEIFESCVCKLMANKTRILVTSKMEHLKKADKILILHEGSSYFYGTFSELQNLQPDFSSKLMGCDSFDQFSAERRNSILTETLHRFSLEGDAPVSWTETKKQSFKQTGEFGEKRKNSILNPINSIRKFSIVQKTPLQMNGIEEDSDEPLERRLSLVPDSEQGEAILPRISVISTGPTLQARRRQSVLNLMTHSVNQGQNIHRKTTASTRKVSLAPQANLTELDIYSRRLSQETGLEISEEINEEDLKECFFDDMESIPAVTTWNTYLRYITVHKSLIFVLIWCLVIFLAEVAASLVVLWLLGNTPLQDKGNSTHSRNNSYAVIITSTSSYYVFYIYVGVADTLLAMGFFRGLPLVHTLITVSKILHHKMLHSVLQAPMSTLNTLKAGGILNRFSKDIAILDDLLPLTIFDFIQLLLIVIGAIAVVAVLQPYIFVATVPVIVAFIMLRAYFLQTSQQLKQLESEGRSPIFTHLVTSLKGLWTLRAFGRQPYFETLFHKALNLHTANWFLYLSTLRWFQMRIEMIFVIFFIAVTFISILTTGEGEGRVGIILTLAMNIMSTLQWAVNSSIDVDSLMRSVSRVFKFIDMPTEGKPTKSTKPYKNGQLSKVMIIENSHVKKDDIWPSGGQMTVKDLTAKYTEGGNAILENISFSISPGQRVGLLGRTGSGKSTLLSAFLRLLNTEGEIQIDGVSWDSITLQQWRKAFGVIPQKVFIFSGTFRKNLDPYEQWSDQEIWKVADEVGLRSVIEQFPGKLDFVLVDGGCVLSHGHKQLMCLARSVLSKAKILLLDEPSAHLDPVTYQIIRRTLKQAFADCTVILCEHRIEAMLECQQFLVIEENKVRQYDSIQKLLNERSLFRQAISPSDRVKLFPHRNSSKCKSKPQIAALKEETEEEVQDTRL
As to the kind of experiment: Measurement of delF508-CFTR-HRP surface expression in CFBE41o- cells (HRP luminescence).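 For DelF508-CFTR-HRP Amax %: percent efficacy relative to a reference CFTR corrector compound.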 Format: cell-based. The following applies: for Emax: CFBE41o-, read-out: DelF508-CFTR-HRP Amax %; for EC50: mean of at least two replicates. The method in brief:
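EC50 derived by logistic regression of triplicate surface-HRP luminescence, plate-normalized to the lowest-concentration median. Doxycycline (500 ng/mL, 48 h) induced delF508-CFTR-HRP in CFBE41o- cells; compounds then applied 24 h at 37° C, 10 μM top, 3-fold over 10 points.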

The structures appear in SMILES notation.

T1 sequence (P13569 with tags, fused parts or gaps DEL508-508): as above

Take `O=C(NS(=O)(=O)c1cccc(N2CC[C@H](O)C2)n1)C1(Oc2cc(Cl)ccc2N2CCC3(CCC3)CC2)CC1` [Example 9-12, (S)-1-(5-Chloro-2-(7-azaspiro[3.5]nonan-7-yl)phenoxy)-N-((6-(3-hydroxypyrrolidin-1-yl)pyridin-2-yl)sulfonyl)cyclopropanecarboxamide]: on delF508-CFTR, the “MTECC24 CFHBEC-Amax %” value was 160.7% and the EC50 worked out at 776 nM. Moreover, at delF508-CFTR-HRP, the Emax came to 579% and the EC50 came to 1330 nM.
For `Cc1ccc(C2CCCCC2)c(OC2(C(=O)NS(=O)(=O)c3cccc(N4CCC(C)(NC(=O)OC(C)(C)C)CC4)n3)CC2)c1` [Example 2-8, Tert-butyl (1-(6-(N-(1-(2-cyclohexyl-5-methylphenoxy)cyclopropanecarbonyl)sulfamoyl)pyridin-2-yl)-4-methylpiperidin-4-yl)carbamate], in that order: 60%, 63 nM, 716% and 540 nM.
In the case of `Cc1ccc(C2CCC(F)(F)CC2)c(OC2(C(=O)NS(=O)(=O)c3cccc(N4CC(C)(NC(=O)OC(C)(C)C)C4)n3)CC2)c1` [Example 3-6, Tert-butyl (1-(6-(N-(1-(2-(4,4-difluorocyclohexyl)-5-methylphenoxy)cyclopropane-1-carbonyl)sulfamoyl)pyridin-2-yl)-3-methylazetidin-3-yl)carbamate], on delF508-CFTR, the “MTECC24 CFHBEC-Amax %” value was 57% and the EC50 came to 57 nM. Also, at delF508-CFTR-HRP, the Emax turned out to be 380% and the EC50 stood at 2660 nM.
The corresponding values for `Cc1ccc(C2CCC(F)(F)CC2)c(OC2(C(=O)NS(=O)(=O)c3cccc(N4CCC5(CC4)CC(=O)c4cc(F)ccc4N5)n3)CC2)c1` [Example 3-1, 1-(2-(4,4-Difluorocyclohexyl)-5-methylphenoxy)-N-((6-(6′-fluoro-4′-oxo-3′,4′-dihydro-1′H-spiro[piperidine-4,2′-quinolin]-1-yl)pyridin-2-yl)sulfonyl)cyclopropanecarboxamide] are 34%, 28 nM, 184% and 3070 nM.
For `Cc1ccc(S(=O)(=O)N2CC3(CCN3c3cccc(S(=O)(=O)NC(=O)C4(Oc5cc(C)ccc5C5CCCCC5)CC4)n3)C2)cc1` [Example 2-56, 1-(2-Cyclohexyl-5-methylphenoxy)-N-((6-(6-tosyl-1,6-diazaspiro[3.3]heptan-1-yl)pyridin-2-yl)sulfonyl)cyclopropane-1-carboxamide], in that order: 83%, 40 nM, 381% and 2510 nM.
`Cc1ccc(-c2ccccc2C(F)(F)F)c(OC2(C(=O)NS(=O)(=O)c3cccc(N4CC[C@H](O)C4)n3)CC2)c1` [Example 5-14, (S)—N-((6-(3-Hydroxypyrrolidin-1-yl)pyridin-2-yl)sulfonyl)-1-((4-methyl-2′-(trifluoromethyl)-[1,1′-biphenyl]-2-yl)oxy)cyclopropane-1-carboxamide]: on delF508-CFTR, the “MTECC24 CFHBEC-Amax %” value turned out to be 43% and the EC50 is 50 nM. On delF508-CFTR-HRP, the Emax amounted to 196% and a half-maximal response (EC50) required 2150 nM.
For `Cc1ccc(OC2CCC3CCCCC3C2)c(OC2(C(=O)NS(=O)(=O)c3cccc(N4CC[C@H](O)C4)n3)CC2)c1` (stereo partly drawn) [Example 6-9, 1-(2-((decahydronaphthalen-2-yl)oxy)-5-methylphenoxy)-N-((6-((S)-3-hydroxypyrrolidin-1-yl)pyridin-2-yl)sulfonyl)cyclopropanecarboxamide], in that order: 107.4%, 289 nM, 382% and 1280 nM.
For `Cc1ccc(C2CCCCC2)c(OC2(C(=O)NS(=O)(=O)c3cccc(N4CCC(C)(C(N)=O)CC4)n3)CC2)c1` [Example 2-14, 1-(6-(N-(1-(2-cyclohexyl-5-methylphenoxy)cyclopropanecarbonyl)sulfamoyl)pyridin-2-yl)-4-methylpiperidine-4-carboxamide], in that order: 75%, 31 nM, 319% and 2780 nM.
As to `Cc1ccc(C2CC=CCC2)c(OC2(C(=O)NS(=O)(=O)c3cccc(N4CC(C)(O)C4)n3)CC2)c1` (stereo not drawn) [Example 4-22, N-((6-(3-hydroxy-3-methylazetidin-1-yl)pyridin-2-yl)sulfonyl)-1-((4-methyl-1′,2′,3′,6′-tetrahydro-[1,1′-biphenyl]-2-yl)oxy)cyclopropanecarboxamide], at delF508-CFTR, the “MTECC24 CFHBEC-Amax %” value turned out to be 62% and the EC50 is 12 nM. At delF508-CFTR-HRP, the Emax was 453% and the EC50 stood at 3670 nM.
Regarding `COC(=O)C1CCN(c2cccc(S(=O)(=O)NC(=O)C3(Oc4cc(C)ccc4C4CCCCC4)CC3)n2)CC1` [Example 2-4, Methyl 1-(6-(N-(1-(2-cyclohexyl-5-methylphenoxy)cyclopropane-1-carbonyl)sulfamoyl)pyridin-2-yl)piperidine-4-carboxylate], on delF508-CFTR, the “MTECC24 CFHBEC-Amax %” value is listed as 91% and the EC50 was found to be 10 nM. Besides, on delF508-CFTR-HRP, the Emax was determined as 808% and it took 1290 nM to reach a half-maximal effect (EC50).
For `Cc1ccc(OCc2ccccc2)c(OC2(C(=O)NS(=O)(=O)c3cccc(N4CCO[C@@H](C)C4)n3)CC2)c1` [Example 6-1, (S)-1-(2-(Benzyloxy)-5-methylphenoxy)-N-((6-(2-methylmorpholino)pyridin-2-yl)sulfonyl)cyclopropanecarboxamide], in that order: 67%, 153 nM, 230% and 3870 nM.
For the molecule `Cc1ccc(C2CCCCC2)c(OC2(C(=O)NS(=O)(=O)c3cccc(N4CCC5(CCCC5N)CC4)n3)CC2)c1` (single isomer, unassigned) [Example 2-32-1, N-((6-(1-Amino-8-azaspiro[4.5]decan-8-yl)pyridin-2-yl)sulfonyl)-1-(2-cyclohexyl-5-methylphenoxy)cyclopropanecarboxamide], on delF508-CFTR, the “MTECC24 CFHBEC-Amax %” value worked out at 78% and the EC50 was found to be 12 nM. Besides, at delF508-CFTR-HRP, the “DelF508-CFTR-HRP Amax %” value is given as 537% and the EC50 came to 3350 nM.
`Cc1ccc(C2CCCCC2)c(OC2(C(=O)NS(=O)(=O)c3cccc(N4CCNC(=O)CC4)n3)CC2)c1` [Example 2-40, 1-(2-Cyclohexyl-5-methylphenoxy)-N-((6-(5-oxo-1,4-diazepan-1-yl)pyridin-2-yl)sulfonyl)cyclopropanecarboxamide]: at delF508-CFTR, the “MTECC24 CFHBEC-Amax %” value stood at 76% and the EC50 was found to be 121 nM. Further, on delF508-CFTR-HRP, the Emax was 123% and a half-maximal effect (EC50) was put at 3790 nM.
On to `Cc1ccc(C2CCCCC2)c(OC2(C(=O)NS(=O)(=O)c3cccc(N4CCC(N)CC4)n3)CC2)c1` [Example 2-41, N-((6-(4-Aminopiperidin-1-yl)pyridin-2-yl)sulfonyl)-1-(2-cyclohexyl-5-methylphenoxy)cyclopropanecarboxamide], for which, at delF508-CFTR, the “MTECC24 CFHBEC-Amax %” value was determined as 54% and the EC50 came to 654 nM. In addition, at delF508-CFTR-HRP, the Emax was determined as 142% and the EC50 was 2960 nM.
In the case of `C[C@@H]1CN(c2cccc(S(=O)(=O)NC(=O)C3(Oc4cc(Cl)ccc4C4CCC(C)(C)CC4)CC3)n2)CCO1` [Example 4-13, (R)-1-(5-Chloro-2-(4,4-dimethylcyclohexyl)phenoxy)-N-((6-(2-methylmorpholino)pyridin-2-yl)sulfonyl)cyclopropane-1-carboxamide], at delF508-CFTR, the “MTECC24 CFHBEC-Amax %” value was determined as 83% and the EC50 stood at 50 nM. For the same molecule, at delF508-CFTR-HRP, the Emax came out at 591% and the EC50 was found to be 1410 nM.
The corresponding values for `Cc1ccc(N2CCC3(CC2)CC3)c(OC2(C(=O)NS(=O)(=O)c3cccc(N4CC[C@H](O)C4)n3)CC2)c1` [Example 9-11, (S)—N-((6-(3-Hydroxypyrrolidin-1-yl)pyridin-2-yl)sulfonyl)-1-(5-methyl-2-(6-azaspiro[2.5]octan-6-yl)phenoxy)cyclopropanecarboxamide] are 133.4%, 396 nM, 580% and 1640 nM.
The corresponding values for `Cc1ccc(C2CCC(F)(F)C2)c(OC2(C(=O)NS(=O)(=O)c3cccc(N4CCC[C@@H](CO)C4)n3)CC2)c1` (single isomer, unassigned) [Example 4-7] are 138%, 156 nM, 314% and 2180 nM.
For `Cc1ccc(C2CCCCC2)c(OC2(C(=O)NS(=O)(=O)c3cccc(N4CCC(C)(NC(=S)NC5CC5)CC4)n3)CC2)c1` [Example 2-23, 1-(2-Cyclohexyl-5-methylphenoxy)-N-((6-(4-(3-cyclopropylthioureido)-4-methylpiperidin-1-yl)pyridin-2-yl)sulfonyl)cyclopropanecarboxamide], in that order: 66%, 4 nM, 330% and 1850 nM.

The record behind these values is patent US20220033407A1, “N-(pyridin-2-ylsulfonyl)cyclopropanecarboxamide Derivatives and their Use in the Treatment of Disease” (NOVARTIS AG, priority 2018, published 2022).
